Source: ChEMBL document CHEMBL1131006, “Antimycobacterial activity of substituted isosteres of pyridine- and pyrazinecarboxylic acids” (1998)
Values after ≈ are worked out from the molar mass of the structure shown.

The molecules below were run on Mycobacterium tuberculosis (assay: Compound was tested for inhibitory activity against Mycobacterium tuberculosis H37Rv ATCC 27294 and the activity is expressed as minimum inhibitory concentration (MIC).).
Assay type: functional

Compared with `NNC(=O)c1ccncc1` [ISONIAZID], `CSCC(=O)c1ccncc1` is higher in MIC: less than 0.02 µg/mL for the first, 210 µg/mL (≈ 1260 µM) for the second.

Compared with `CC(C)(C)C(=O)OCn1nnc(-c2ccncc2)n1`, `CC(C)(C)C(=O)OCn1nnc(-c2cccnc2)n1` is 2-fold lower in MIC: 26 µg/mL (≈ 99.5 µM) for the first, 13 µg/mL (≈ 49.8 µM) for the second.

Going from `CC(C)(C)C(=O)OCn1nnnc1-c1cccnc1` to `CC(C)(C)C(=O)OCn1nnnc1-c1ccncc1`, the MIC falls from 105 µg/mL (≈ 402 µM) to 52 µg/mL (≈ 199 µM) (2-fold).

Going from `CC(C)(C)C(=O)OCn1nnnc1-c1cnccn1` to `CC(C)(C)C(=O)OCn1nnc(-c2cnccn2)n1`, the MIC rises from 13 µg/mL (≈ 49.6 µM) to 26 µg/mL (≈ 99.1 µM) (2-fold).

Going from `C[S+]([O-])CC(=O)c1cnccn1` (stereo unspecified) to `CSCC(=O)c1cnccn1`, the MIC falls from greater than 210 µg/mL to 105 µg/mL (≈ 624 µM).

`CCOC(=O)Oc1cc(=O)oc2cnccc12` and `CC(=O)Oc1cc(=O)oc2cnccc12` cannot be ordered by MIC: greater than 210 µg/mL for the first, greater than 210 µg/mL for the second.

Compared with `O=C(Oc1cc(=O)oc2cnccc12)c1ccccc1`, `O=c1cc(O)c2ccncc2o1` is higher in MIC: 210 µg/mL (≈ 786 µM) for the first, greater than 210 µg/mL for the second.

`c1cncc(C2N=NN=N2)c1` and `c1cc(C2N=NN=N2)ccn1` cannot be ordered by MIC: greater than 210 µg/mL for the first, greater than 210 µg/mL for the second.

Compared with `CSCC(=O)c1cccnc1`, `C[S+]([O-])CC(=O)c1cccnc1` (stereo unspecified) is higher in MIC: 210 µg/mL (≈ 1260 µM) for the first, greater than 210 µg/mL for the second.

Going from `c1cnc(C2N=NN=N2)cn1` to `NC(=O)c1cnccn1` [PYRAZINAMIDE], the MIC falls from greater than 210 µg/mL to 52 µg/mL (≈ 422 µM).

Work on `C[S+]([O-])CC(=O)c1ccncc1` (stereo unspecified) yielded an MIC greater than 210 µg/mL.
